Data as given in US6737383B1, “Herbicidal oxadiazolidines” (priority 1999, dated 2004).

Tests used:
bamyardgrass = experiment: Test B flood test barnyardgrass; type: in vivo, Echinochloa crus-galli
In short: (§1)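 Each value is a visual injury score relative to controls, with 10 meaning complete control and 0 no effect. Evaluation took place twelve to sixteen days after the 2-leaf-stage plants were treated and kept in the greenhouse.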

soybean = experiment: Test B pre/postemergence soybean; type: in vivo, Glycine max
In short: (§2)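 Test chemicals in a non-phytotoxic solvent mixture with surfactant were sprayed preemergence onto planted seeds and postemergence onto plants 2 to 18 cm tall (1- to 4-leaf stage). After twelve to sixteen days in a greenhouse, injury was visually rated against untreated controls from 0 (no effect) to 10 (complete control).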

velvetleaf = experiment: Test B pre/postemergence velvetleaf; type: in vivo, Abutilon theophrasti; settings: for Plant response rating, Velvetleaf: Rate 250 g/ha
In short: as §2

duck salad = experiment: Test B flood test duck salad; type: in vivo, Heteranthera limosa
In short: as §1

pigweed = experiment: Test B pre/postemergence pigweed; type: in vivo, Amaranthus retroflexus
In short: as §2

cocklebur = experiment: Test B pre/postemergence cocklebur; type: in vivo, Xanthium strumarium
In short: as §2

bedstraw = experiment: Test B pre/postemergence bedstraw; type: in vivo, Galium aparine
In short: as §2

surinam grass = experiment: Test B pre/postemergence surinam grass; type: in vivo, Brachiaria decumbens
In short: as §2

smallflower flatsedge = experiment: Test B flood test smallflower flatsedge; type: in vivo, Cyperus difformis
In short: as §1

giant foxtail = experiment: Test B pre/postemergence giant foxtail; type: in vivo, Setaria faberii
In short: as §2

corn = experiment: Test B pre/postemergence corn; type: in vivo, Zea mays
In short: as §2

blackgrass = experiment: Test B pre/postemergence blackgrass; type: in vivo, Alopecurus myosuroides
In short: as §2

purple nutsedge = experiment: Test B pre/postemergence purple nutsedge; type: in vivo, Cyperus rotundus
In short: as §2

sugar beet = experiment: Test B pre/postemergence sugar beet; type: in vivo, Beta vulgaris; settings: for Plant response rating, Sugarbeets: Rate 250 g/ha
In short: as §2

morningglory = experiment: Test B pre/postemergence morningglory; type: in vivo, Ipomoea hederacea
In short: as §2

rape = experiment: Test B pre/postemergence rape; type: in vivo, Brassica napus
In short: as §2

[1] = Postemergence (flood test species), Rate 125 g/ha, scale of 0 to 10 where 0 is no effect and 10 is complete control
[2] = Postemergence, Rate 62 g/ha, scale 0 to 10, 0 is no effect, 10 is complete control
[3] = Rate 250 g/ha, headed Pre-emergence (flood test species), scale 0 to 10 (0 no effect, 10 complete control)
[4] = Rate 500 g/ha, headed Pre-emergence (flood test species), scale 0 to 10 (0 no effect, 10 complete control)
[5] = Rate 500 g/ha, listed under Postemergence (flood test species), scale 0 to 10, 0 no effect, 10 complete control
[6] = Rate 1000 g/ha, Pre-emergence (as headed), scale 0 to 10
[7] = flood test, listed under Postemergence, Rate 250 g/ha, scale 0 to 10, 0 no effect, 10 complete control
[8] = Postemergence, Rate 125 g/ha, scale of 0 to 10 where 0 is no effect and 10 is complete control
[9] = Preemergence, Rate 62 g/ha, scale 0 to 10 (0 no effect, 10 complete control)
[10] = Preemergence, Rate 125 g/ha, scale 0 to 10 (0 no effect, 10 complete control)
[11] = Preemergence, Rate 250 g/ha, scale of 0 to 10 where 0 is no effect and 10 is complete control
[12] = Preemergence, Rate 500 g/ha, scale 0 to 10 (0 no effect, 10 complete control)
[13] = Rate 62 g/ha, Postemergence, scale of 0 to 10 where 0 is no effect and 10 is complete control
[14] = Rate 250 g/ha, Postemergence, scale 0 to 10, 0 is no effect, 10 is complete control
[15] = Rate 500 g/ha, Postemergence, scale 0 to 10, 0 no effect, 10 complete control
[16] = Preemergence, Rate 125 g/ha, 0 is no effect, 10 is complete control
[17] = Preemergence, scale of 0 to 10 where 0 is no effect and 10 is complete control
[18] = Postemergence, scale 0 to 10, 0 is no effect, 10 is complete control
[19] = Rate 62 g/ha, Postemergence section, flood test species, scale of 0 to 10 where 0 is no effect and 10 is complete control
[20] = Rate 2000 g/ha, Pre-emergence (as headed), scale 0 to 10
[21] = Postemergence, Rate 250 g/ha, scale 0 to 10, 0 no effect, 10 complete control

Compound: Cc1nn(C)c(Cl)c1-n1c(=O)on(C(=O)N(c2ccccc2)C(C)C)c1=O [Compound 121]
- Barnyardgrass plant response rating (bamyardgrass; [1]): 0
- Barnyardgrass plant response rating (bamyardgrass; [2]): 0
- Barnyardgrass plant response rating (bamyardgrass; [3]): 0
- Plant response rating, Barnyardgrass (bamyardgrass; [4]): 8
- Barnyardgrass plant response rating (bamyardgrass; [5]): 6
- Barnyardgrass plant response rating (bamyardgrass; [6]): 9
- Barnyardgrass plant response rating (bamyardgrass; Rate 2000 g/ha, Pre-emergence (as headed), scale 0 to 10, 0 no effect, 10 complete control): 9
- Barnyardgrass plant response rating (bamyardgrass; [7]): 0
- Soybean plant response rating (soybean; [8]): 5
- Soybean plant response rating (soybean; [9]): 0
- Plant response rating, Soybean (soybean; [10]): 0
- Plant response rating, Soybean (soybean; [11]): 0
- Soybean plant response rating (soybean; [12]): 0
- Soybean plant response rating (soybean; [13]): 5
- Plant response rating, Soybean (soybean; [14]): 6
- Soybean plant response rating (soybean; [15]): 6
- Velvetleaf plant response rating (velvetleaf; [8]): 0
- Velvetleaf plant response rating (velvetleaf; [9]): 0
- Velvetleaf plant response rating (0 to 10 scale) (velvetleaf; [16]): 0
- Plant response rating, Velvetleaf (velvetleaf; [17]): 0
- Velvetleaf plant response rating (velvetleaf; [12]): 0
- Velvetleaf plant response rating (velvetleaf; [13]): 0
- Plant response rating, Velvetleaf (velvetleaf; [18]): 4
- Velvetleaf plant response rating (velvetleaf; [15]): 4
- Ducksalad plant response rating (duck salad; [1]): 0
- Ducksalad plant response rating (duck salad; [19]): 0
- Ducksalad plant response rating (duck salad; [3]): 0
- Plant response rating, Ducksalad (duck salad; [4]): 0
- Ducksalad plant response rating (duck salad; [5]): 0
- Ducksalad plant response rating (duck salad; [6]): 0
- Ducksalad plant response rating (duck salad; [20]): 0
- Ducksalad plant response rating (duck salad; [7]): 0
- Redroot pigweed plant response rating (pigweed; [8]): 2
- Redroot pigweed plant response rating (pigweed; [9]): 4
- Plant response rating, Redroot pigweed (pigweed; [10]): 7
- Plant response rating, Redroot pigweed (pigweed; [11]): 8
- Redroot pigweed plant response rating (pigweed; [12]): 8
- Redroot pigweed plant response rating (pigweed; [13]): 2
- Plant response rating, Redroot pigweed (pigweed; [14]): 3
- Redroot pigweed plant response rating (pigweed; [15]): 5
- Cocklebur plant response rating (cocklebur; [8]): 2
- Cocklebur plant response rating (cocklebur; [21]): 2
- Cocklebur plant response rating (cocklebur; [9]): 0
- Plant response rating, Cocklebur (cocklebur; [10]): 0
- Cocklebur plant response rating (cocklebur; [12]): 0
- Cocklebur plant response rating (cocklebur; [13]): 0
- Cocklebur plant response rating (cocklebur; [15]): 5
- Bedstraw plant response rating (bedstraw; [9]): 0
- Plant response rating, Bedstraw (bedstraw; [10]): 0
- Plant response rating, Bedstraw (bedstraw; [11]): 2
- Bedstraw plant response rating (bedstraw; [12]): 5
- Bedstraw plant response rating (bedstraw; [15]): 6
- B. signalgrass plant response rating (surinam grass; [2]): 0
- B. signalgrass plant response rating (surinam grass; [8]): 0
- B. signalgrass plant response rating (surinam grass; [21]): 3
- B. signalgrass plant response rating (surinam grass; [9]): 0
- Plant response rating, B. signalgrass (surinam grass; [10]): 4
- Plant response rating, B. signalgrass (surinam grass; [11]): 8
- B. signalgrass plant response rating (surinam grass; [12]): 9
- B. signalgrass plant response rating (surinam grass; Rate 500 g/ha, Postemergence, scale of 0 to 10 where 0 is no effect and 10 is complete control): 3
- S. Flatsedge plant response rating (smallflower flatsedge; [1]): 5
- S. Flatsedge plant response rating (smallflower flatsedge; Pre-emergence, Rate 1000 g/ha, scale 0 to 10 (0 no effect, 10 complete control)): 9
- S. Flatsedge plant response rating (smallflower flatsedge; [19]): 3
- Plant response rating, S. Flatsedge (smallflower flatsedge; Rate 250 g/ha, Postemergence (flood test), scale 0 to 10, 0 is no effect, 10 is complete control): 5
- S. Flatsedge plant response rating (smallflower flatsedge; [3]): 0
- Plant response rating, S. Flatsedge (smallflower flatsedge; [4]): 3
- S. Flatsedge plant response rating (smallflower flatsedge; [5]): 6
- S. Flatsedge plant response rating (smallflower flatsedge; [20]): 9
- Giant foxtail plant response rating (giant foxtail; [8]): 1
- Giant foxtail plant response rating (giant foxtail; [21]): 7
- Giant foxtail plant response rating (giant foxtail; [9]): 8
- Plant response rating, Giant foxtail (giant foxtail; [10]): 8
- Plant response rating, Giant foxtail (giant foxtail; [11]): 8
- Giant foxtail plant response rating (giant foxtail; [12]): 10
- Giant foxtail plant response rating (giant foxtail; [13]): 1
- Giant foxtail plant response rating (giant foxtail; [15]): 8
- Corn plant response rating (corn; [8]): 0
- Corn plant response rating (corn; [21]): 0
- Corn plant response rating (corn; [9]): 0
- Plant response rating, Corn (corn; [10]): 0
- Plant response rating, Corn (corn; [11]): 0
- Corn plant response rating (corn; [12]): 0
- Corn plant response rating (corn; [13]): 0
- Corn plant response rating (corn; [15]): 0
- Blackgrass plant response rating (blackgrass; [8]): 0
- Blackgrass plant response rating (blackgrass; [21]): 2
- Blackgrass plant response rating (blackgrass; [9]): 0
- Plant response rating, Blackgrass (blackgrass; [10]): 4
- Plant response rating, Blackgrass (blackgrass; [11]): 7
- Blackgrass plant response rating (blackgrass; [12]): 9
- Blackgrass plant response rating (blackgrass; [13]): 0
- Blackgrass plant response rating (blackgrass; [15]): 6
- Nutsedge plant response rating (purple nutsedge; [8]): 0
- Nutsedge plant response rating (purple nutsedge; [21]): 0
- Nutsedge plant response rating (purple nutsedge; [9]): 0
- Plant response rating, Nutsedge (purple nutsedge; [10]): 0
- Plant response rating, Nutsedge (purple nutsedge; [11]): 0
- Nutsedge plant response rating (purple nutsedge; [12]): 0
- Nutsedge plant response rating (purple nutsedge; [13]): 0
- Nutsedge plant response rating (purple nutsedge; [15]): 0
- Sugarbeets plant response rating (sugar beet; [8]): 0
- Sugarbeets plant response rating (sugar beet; [9]): 0
- Sugarbeets plant response rating (0 to 10 scale) (sugar beet; [16]): 3
- Plant response rating, Sugarbeets (sugar beet; [17]): 7
- Sugarbeets plant response rating (sugar beet; [12]): 7
- Sugarbeets plant response rating (sugar beet; [13]): 0
- Plant response rating, Sugarbeets (sugar beet; [18]): 4
- Sugarbeets plant response rating (sugar beet; [15]): 4
- Morningglory plant response rating (morningglory; [8]): 6
- Morningglory plant response rating (morningglory; [21]): 6
- Morningglory plant response rating (morningglory; [9]): 0
- Plant response rating, Morningglory (morningglory; [10]): 0
- Plant response rating, Morningglory (morningglory; [11]): 0
- Morningglory plant response rating (morningglory; [12]): 0
- Morningglory plant response rating (morningglory; [13]): 5
- Morningglory plant response rating (morningglory; [15]): 9
- Rape plant response rating (rape; [8]): 0
- Rape plant response rating (rape; [21]): 2
- Rape plant response rating (rape; [9]): 0
- Plant response rating, Rape (rape; [10]): 0
- Plant response rating, Rape (rape; [11]): 0
- Rape plant response rating (rape; [12]): 0
- Rape plant response rating (rape; [13]): 0
- Rape plant response rating (rape; [15]): 3
